According to ChEMBL document CHEMBL4020848, “Antibacterial Activity Affected by the Conformational Flexibility in Glycine-Lysine Based α-Helical Antimicrobial Peptides” (J Med Chem, 2018):
In brackets after ≈: the same amount, converted by molar mass. Activity calls are given as the source filed them. The calls are words filed in the database; no cut-off is given here.

Tests used:
Escherichia coli [1] = assay: Bactericidal activity against Escherichia coli ATCC 25922 after 18 hrs by microdilution method; type: functional; conditions: ATCC 25922, 18 h, read-out: MBC=>99.9
Escherichia coli [2] = assay: Induction of membrane permeabilization in Escherichia coli ATCC 25922 assessed as loss of pili/flagella at MBC after 1 hr by atomic force microscopic method; type: functional
Escherichia coli [3] = assay: Induction of membrane permeabilization in Escherichia coli ATCC 25922 assessed as loss of pili/flagella at MIC after 1 hr by atomic force microscopic method; type: functional
[4] = Cytotoxicity against human peripheral blood leukocytes assessed as cell viability at 0.18 uM after 24 hrs by acridine orange/ethidium bromide staining based fluorescence microscopic method relative to control; set-up: species or system Leukocyte; conditions: read-out: Activity
Escherichia coli [5] = assay: Antibacterial activity against Escherichia coli ATCC 25922 after 18 hrs by microdilution method; type: functional; conditions: ATCC 25922, 18 h
Escherichia coli [6] = assay: Antibacterial activity against clinical isolates of Escherichia coli after 18 hrs by microdilution method; type: functional
Acinetobacter baumannii [7] = assay: Antibacterial activity against Acinetobacter baumannii ATCC 19606 after 18 hrs by microdilution method; type: functional; conditions: ATCC 19606 = CIP 70.34 = JCM 6841, 18 h
Acinetobacter baumannii [8] = assay: Antibacterial activity against clinical isolates of Acinetobacter baumannii after 18 hrs by microdilution method; type: functional
Klebsiella pneumoniae [9] = assay: Antibacterial activity against Klebsiella pneumoniae ATCC 13883 after 18 hrs by microdilution method; type: functional; conditions: ATCC 13883, 18 h
Klebsiella pneumoniae [10] = assay: Antibacterial activity against clinical isolates of Klebsiella pneumoniae after 18 hrs by microdilution method; type: functional
Pseudomonas aeruginosa [11] = assay: Antibacterial activity against Pseudomonas aeruginosa ATCC 27853 after 18 hrs by microdilution method; type: functional; conditions: ATCC 27853, 18 h
Pseudomonas aeruginosa [12] = assay: Antibacterial activity against clinical isolates of Pseudomonas aeruginosa after 18 hrs by microdilution method; type: functional
Staphylococcus aureus [13] = assay: Antibacterial activity against Staphylococcus aureus ATCC 25923 after 18 hrs by microdilution method; type: functional; conditions: ATCC 25923, 18 h
Staphylococcus aureus [14] = assay: Antibacterial activity against clinical isolates of Staphylococcus aureus after 18 hrs by microdilution method; type: functional
Escherichia coli [15] = assay: Bactericidal activity against clinical isolates of Escherichia coli after 18 hrs by microdilution method; type: functional; conditions: read-out: MBC=>99.9
Acinetobacter baumannii [16] = assay: Bactericidal activity against Acinetobacter baumannii ATCC 19606 after 18 hrs by microdilution method; type: functional; conditions: ATCC 19606 = CIP 70.34 = JCM 6841, 18 h, read-out: MBC=>99.9
Acinetobacter baumannii [17] = assay: Bactericidal activity against clinical isolates of Acinetobacter baumannii after 18 hrs by microdilution method; type: functional; conditions: read-out: MBC=>99.9
Klebsiella pneumoniae [18] = assay: Bactericidal activity against Klebsiella pneumoniae ATCC 13883 after 18 hrs by microdilution method; type: functional; conditions: ATCC 13883, 18 h, read-out: MBC=>99.9
Klebsiella pneumoniae [19] = assay: Bactericidal activity against clinical isolates of Klebsiella pneumoniae after 18 hrs by microdilution method; type: functional; conditions: read-out: MBC=>99.9
Pseudomonas aeruginosa [20] = assay: Bactericidal activity against Pseudomonas aeruginosa ATCC 27853 after 18 hrs by microdilution method; type: functional; conditions: ATCC 27853, 18 h, read-out: MBC=>99.9
Pseudomonas aeruginosa [21] = assay: Bactericidal activity against clinical isolates of Pseudomonas aeruginosa after 18 hrs by microdilution method; type: functional; conditions: read-out: MBC=>99.9
Staphylococcus aureus [22] = assay: Bactericidal activity against Staphylococcus aureus ATCC 25923 after 18 hrs by microdilution method; type: functional; conditions: ATCC 25923, 18 h, read-out: MBC=>99.9
Staphylococcus aureus [23] = assay: Bactericidal activity against clinical isolates of Staphylococcus aureus after 18 hrs by microdilution method; type: functional; conditions: read-out: MBC=>99.9
Escherichia coli [24] = assay: Growth inhibition of Escherichia coli ATCC 25922 measured every 10 mins for 4 hrs; type: functional
Staphylococcus aureus [25] = assay: Growth inhibition of Staphylococcus aureus ATCC 25923 measured every 10 mins for 4 hrs; type: functional
Escherichia coli [26] = assay: Induction of membrane permeabilization in Escherichia coli ATCC 25922 assessed as propidium iodide uptake at 0.25 to 1 times MIC preincubated up to 60 mins followed by propidium iodide addition by flow cytometry relative to control; type: functional
Escherichia coli [27] = assay: Induction of membrane permeabilization in Escherichia coli ATCC 25922 assessed as bleb formation at MIC after 1 hr by atomic force microscopic method; type: functional
Escherichia coli [28] = assay: Induction of membrane permeabilization in Escherichia coli ATCC 25922 assessed as surface indentations at MIC after 1 hr by atomic force microscopic method; type: functional
Escherichia coli [29] = assay: Induction of membrane permeabilization in Escherichia coli ATCC 25922 assessed as formation of pores/cavities at MIC after 1 hr by atomic force microscopic method; type: functional
Escherichia coli [30] = assay: Induction of membrane permeabilization in Escherichia coli ATCC 25922 assessed as massive cell disruption/collapse at MBC after 1 hr by atomic force microscopic method; type: functional
Escherichia coli [31] = assay: Induction of membrane permeabilization in Escherichia coli ATCC 25922 assessed as loss of pili/flagella up to 128 uM after 1 hr by atomic force microscopic method; type: functional
Escherichia coli [32] = assay: Induction of membrane permeabilization in Escherichia coli ATCC 25922 assessed as propidium iodide uptake preincubated up to 60 mins followed by propidium iodide addition by flow cytometry; type: functional
[33] = Selectivity index, ratio of HC50 for human RBC to MIC for Escherichia coli ATCC 25922
[34] = Selectivity index, ratio of HC50 for human RBC to MIC for Escherichia coli
[35] = Selectivity index, ratio of HC50 for human RBC to MIC for Acinetobacter baumannii ATCC 19606
[36] = Selectivity index, ratio of HC50 for human RBC to MIC for Acinetobacter baumannii
[37] = Selectivity index, ratio of HC50 for human RBC to MIC for Klebsiella pneumoniae ATCC 13883
[38] = Selectivity index, ratio of HC50 for human RBC to MIC for Klebsiella pneumoniae
[39] = Selectivity index, ratio of HC50 for human RBC to MIC for Pseudomonas aeruginosa ATCC 27853
[40] = Selectivity index, ratio of HC50 for human RBC to MIC for Pseudomonas aeruginosa
[41] = Selectivity index, ratio of HC50 for human RBC to MIC for Staphylococcus aureus ATCC 25923
[42] = Selectivity index, ratio of HC50 for human RBC to MIC for Staphylococcus aureus
Escherichia coli [43] = assay: Induction of membrane permeabilization in Escherichia coli ATCC 25922 assessed as incipient damage at 0.25 uM after 1 hr by atomic force microscopic method; type: functional
Escherichia coli [44] = assay: Induction of membrane permeabilization in Escherichia coli ATCC 25922 assessed as massive damage at 0.5 to 1 uM after 1 hr by atomic force microscopic method; type: functional
[45] = Genotoxicity in human peripheral blood leukocytes assessed as DNA damage up to 100 uM up to 24 hrs by alkaline comet assay; type: toxicity, cell-based; conditions: leukocyte
[46] = Cytotoxicity against human peripheral blood leukocytes assessed as cell viability at 50 uM after 4 hrs by acridine orange/ethidium bromide staining based fluorescence microscopic method relative to control; set-up: species or system Leukocyte; conditions: read-out: Activity
[47] = Cytotoxicity against human peripheral blood leukocytes assessed as cell viability at 50 uM after 24 hrs by acridine orange/ethidium bromide staining based fluorescence microscopic method relative to control; set-up: species or system Leukocyte; conditions: read-out: Activity
[48] = Cytotoxicity against human peripheral blood leukocytes assessed as cell viability at 100 uM after 4 hrs by acridine orange/ethidium bromide staining based fluorescence microscopic method relative to control; set-up: species or system Leukocyte; conditions: read-out: Activity
[49] = Cytotoxicity against human peripheral blood leukocytes assessed as cell viability at 100 uM after 24 hrs by acridine orange/ethidium bromide staining based fluorescence microscopic method relative to control; set-up: species or system Leukocyte; conditions: read-out: Activity

In the case of `CC[C@H](C)[C@H](NC(=O)CN)C(=O)NCC(=O)N[C@@H](C)C(=O)N[C@H](C(=O)N[C@@H](CC(C)C)C(=O)N[C@@H](CCCCN)C(=O)N[C@H](C(=O)N[C@@H](CC(C)C)C(=O)N[C@H](C(=O)N[C@H](C(=O)NCC(=O)N[C@@H](CC(C)C)C(=O)N1CCC[C@H]1C(=O)N[C@@H](C)C(=O)N[C@@H](CC(C)C)C(=O)N[C@H](C(=O)N[C@@H](CO)C(=O)N[C@@H](Cc1c[nH]c2ccccc12)C(=O)N[C@H](C(=O)N[C@@H](CCCCN)C(=O)N[C@@H](CCCNC(=N)N)C(=O)N[C@@H](CCCCN)C(=O)N[C@@H](CCCNC(=N)N)C(=O)N[C@@H](CCC(N)=O)C(=O)N[C@@H](CCC(N)=O)C(N)=O)[C@@H](C)CC)[C@@H](C)CC)[C@@H](C)O)[C@@H](C)O)C(C)C)C(C)C` [MELITTIN], the MBC (Escherichia coli [1]) is reported as 20 µM (≈ 56.9 µg/mL), the Activity (Escherichia coli [2]) is reported as “Active” and the Activity (Escherichia coli [3]) is reported as “Active”. It also gave a viability at 24 h, 0.18 µM [4] of 60%.
With H-KIAGKAGKIAKIAGKAGKIA-NH2 the MIC (Escherichia coli [5]) was > 64 µM, the MIC (Escherichia coli [6]) was > 64 µM and the MIC (Acinetobacter baumannii [7]) was > 64 µM. For the same compound, the MIC (Acinetobacter baumannii [8]) was > 64 µM, the MIC (Klebsiella pneumoniae [9]) was > 64 µM and the MIC (Klebsiella pneumoniae [10]) was > 64 µM. For the same compound, the MIC (Pseudomonas aeruginosa [11]) was > 64 µM, the MIC (Pseudomonas aeruginosa [12]) was > 64 µM and the MIC (Staphylococcus aureus [13]) was > 64 µM. The MIC (Staphylococcus aureus [14]) was > 64 µM, the MBC (Escherichia coli [1]) was > 64 µM and the MBC (Escherichia coli [15]) was > 64 µM. The MBC (Acinetobacter baumannii [16]) was > 64 µM, the MBC (Acinetobacter baumannii [17]) was > 64 µM and the MBC (Klebsiella pneumoniae [18]) was > 64 µM. The MBC (Klebsiella pneumoniae [19]) was > 64 µM, the MBC (Pseudomonas aeruginosa [20]) was > 64 µM and the MBC (Pseudomonas aeruginosa [21]) was > 64 µM. The MBC (Staphylococcus aureus [22]) was > 64 µM, the MBC (Staphylococcus aureus [23]) was > 64 µM and the IC50 (Escherichia coli [24]) was > 128000 nM. The IC50 (Staphylococcus aureus [25]) was > 128000 nM, the Activity (Escherichia coli [26]) was <5% and the Activity (Escherichia coli [27]) was “Active”. The Activity (Escherichia coli [28]) was “Active”, the Activity (Escherichia coli [29]) was “Active” and the Activity (Escherichia coli [30]) was “Active”. The Activity (Escherichia coli [2]) was “Active”, the Activity (Escherichia coli [31]) was “inactive” and the IC50 (Escherichia coli [32]) was > 128000 nM.
Work on H-KIAKGALKALKIAKVALKAL-NH2 yielded an MIC (Escherichia coli [5]) of 0.25 to 0.5 µM, an MIC (Escherichia coli [6]) of 4 µM and an MIC (Acinetobacter baumannii [7]) of 0.5 to 1 µM. The MIC (Acinetobacter baumannii [8]) was 0.5 µM, the MIC (Klebsiella pneumoniae [9]) was 2 µM and the MIC (Klebsiella pneumoniae [10]) was 4 µM. The MIC (Pseudomonas aeruginosa [11]) was 2 µM, the MIC (Pseudomonas aeruginosa [12]) was 2 to 4 µM and the MIC (Staphylococcus aureus [13]) was 8 to 16 µM. The MIC (Staphylococcus aureus [14]) was 4 to 8 µM, the MBC (Escherichia coli [1]) was 0.5 to 1 µM and the MBC (Escherichia coli [15]) was 8 µM. It also gave an MBC (Acinetobacter baumannii [16]) of 1 µM, an MBC (Acinetobacter baumannii [17]) of 1 µM and an MBC (Klebsiella pneumoniae [18]) of 2 µM. It also gave an MBC (Klebsiella pneumoniae [19]) of 8 µM, an MBC (Pseudomonas aeruginosa [20]) of 4 µM and an MBC (Pseudomonas aeruginosa [21]) of 4 µM. It also gave an MBC (Staphylococcus aureus [22]) of 8 to 16 µM, an MBC (Staphylococcus aureus [23]) of 8 µM and a Selectivity Index [33] of 60 to 120. The Selectivity Index [34] was 7, the Selectivity Index [35] was 30 to 60 and the Selectivity Index [36] was 60. The Selectivity Index [37] was 15, the Selectivity Index [38] was 7 and the Selectivity Index [39] was 15. The Selectivity Index [40] was 7 to 15, the Selectivity Index [41] was 2 to 4 and the Selectivity Index [42] was 4 to 8. For the same compound, the IC50 (Escherichia coli [24]) was 350 nM, the IC50 (Staphylococcus aureus [25]) was 800 nM and the Activity (Escherichia coli [27]) was “Active”. The Activity (Escherichia coli [28]) was “Active”, the Activity (Escherichia coli [29]) was “Active” and the Activity (Escherichia coli [30]) was “Active”. The Activity (Escherichia coli [2]) was “Active”, the Activity (Escherichia coli [43]) was “Active” and the Activity (Escherichia coli [44]) was “Active”. For the same compound, the Activity [45] was “Non-Toxic”, the viability at 4 h, 50 µM [46] was 92% and the viability at 24 h, 50 µM [47] was 92%. For the same compound, the viability at 4 h, 100 µM [48] was 89%, the viability at 24 h, 100 µM [49] was 83% and the IC50 (Escherichia coli [32]) was 500 nM.
